Our source for the IC50 values is US9006450B2 (Boehringer Ingelheim International GmbH, priority 2010, dated 2015).

As usually defined, the IC50 is the concentration at which inhibition is half-maximal.

T1 sequence (O00763 129-2458 limits assumed): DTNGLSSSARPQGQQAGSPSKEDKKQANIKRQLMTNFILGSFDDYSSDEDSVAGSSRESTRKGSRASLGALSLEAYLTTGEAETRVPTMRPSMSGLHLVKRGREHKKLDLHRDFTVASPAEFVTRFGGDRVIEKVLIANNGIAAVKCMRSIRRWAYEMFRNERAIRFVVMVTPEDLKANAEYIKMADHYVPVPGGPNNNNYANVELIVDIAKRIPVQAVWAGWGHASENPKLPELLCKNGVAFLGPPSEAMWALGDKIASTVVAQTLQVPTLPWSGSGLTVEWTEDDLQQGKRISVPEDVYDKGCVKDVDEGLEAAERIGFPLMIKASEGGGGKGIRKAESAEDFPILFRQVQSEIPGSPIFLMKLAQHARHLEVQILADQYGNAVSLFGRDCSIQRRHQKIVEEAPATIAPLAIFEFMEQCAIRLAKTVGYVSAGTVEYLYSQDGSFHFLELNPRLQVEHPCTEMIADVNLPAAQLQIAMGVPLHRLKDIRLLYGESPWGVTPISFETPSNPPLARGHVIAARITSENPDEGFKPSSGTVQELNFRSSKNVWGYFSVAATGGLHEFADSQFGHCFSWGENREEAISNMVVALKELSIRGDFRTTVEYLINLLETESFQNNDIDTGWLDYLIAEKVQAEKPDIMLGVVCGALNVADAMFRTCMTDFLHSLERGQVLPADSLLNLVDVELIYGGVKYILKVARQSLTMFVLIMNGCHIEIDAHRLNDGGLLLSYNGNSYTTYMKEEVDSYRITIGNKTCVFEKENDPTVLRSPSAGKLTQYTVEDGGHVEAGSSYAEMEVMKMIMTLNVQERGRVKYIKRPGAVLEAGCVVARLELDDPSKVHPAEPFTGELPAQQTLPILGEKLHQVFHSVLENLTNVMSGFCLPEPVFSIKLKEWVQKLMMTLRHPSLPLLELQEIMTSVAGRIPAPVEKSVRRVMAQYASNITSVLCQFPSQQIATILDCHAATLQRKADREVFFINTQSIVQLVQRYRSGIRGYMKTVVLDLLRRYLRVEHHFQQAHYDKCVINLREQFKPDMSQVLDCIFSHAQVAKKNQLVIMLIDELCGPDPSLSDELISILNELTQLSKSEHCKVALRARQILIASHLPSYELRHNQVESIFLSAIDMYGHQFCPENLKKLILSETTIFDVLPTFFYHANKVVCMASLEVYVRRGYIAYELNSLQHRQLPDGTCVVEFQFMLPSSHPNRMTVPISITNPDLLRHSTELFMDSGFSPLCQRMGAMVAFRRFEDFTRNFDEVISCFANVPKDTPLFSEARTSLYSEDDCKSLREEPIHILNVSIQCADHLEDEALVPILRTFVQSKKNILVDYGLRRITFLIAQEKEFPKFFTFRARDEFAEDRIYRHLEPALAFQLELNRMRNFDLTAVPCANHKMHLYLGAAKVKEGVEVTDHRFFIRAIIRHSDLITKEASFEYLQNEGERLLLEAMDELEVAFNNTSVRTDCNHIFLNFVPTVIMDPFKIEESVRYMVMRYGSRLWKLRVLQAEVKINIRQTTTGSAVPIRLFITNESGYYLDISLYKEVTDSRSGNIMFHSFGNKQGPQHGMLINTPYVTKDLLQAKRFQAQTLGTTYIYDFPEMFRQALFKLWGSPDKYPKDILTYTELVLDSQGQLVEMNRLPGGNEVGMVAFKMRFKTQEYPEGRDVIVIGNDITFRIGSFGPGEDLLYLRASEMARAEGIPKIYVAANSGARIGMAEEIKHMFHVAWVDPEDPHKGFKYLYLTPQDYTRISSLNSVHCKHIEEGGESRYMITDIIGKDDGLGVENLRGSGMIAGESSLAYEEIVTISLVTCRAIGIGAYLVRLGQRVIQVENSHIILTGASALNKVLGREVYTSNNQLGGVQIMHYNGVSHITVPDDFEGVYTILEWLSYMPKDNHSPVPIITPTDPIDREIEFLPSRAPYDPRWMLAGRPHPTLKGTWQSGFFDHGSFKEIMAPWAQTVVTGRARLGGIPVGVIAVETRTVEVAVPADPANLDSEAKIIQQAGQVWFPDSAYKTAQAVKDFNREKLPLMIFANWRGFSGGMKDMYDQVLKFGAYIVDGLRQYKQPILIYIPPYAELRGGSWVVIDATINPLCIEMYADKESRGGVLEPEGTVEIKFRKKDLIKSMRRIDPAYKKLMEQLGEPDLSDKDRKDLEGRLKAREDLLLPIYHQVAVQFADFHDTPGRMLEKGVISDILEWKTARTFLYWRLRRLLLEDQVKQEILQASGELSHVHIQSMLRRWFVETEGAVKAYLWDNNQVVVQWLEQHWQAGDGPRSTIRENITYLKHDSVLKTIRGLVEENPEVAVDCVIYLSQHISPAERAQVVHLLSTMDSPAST

This experiment has as its target T1, human ACC2 (Homo sapiens, UniProt O00763).
T1 construct: made in house; host or cells: insect cells (baculoviral expression system)
Nature of the experiment: ACC2 assay, spectrophotometric 384 well assay (NADH-linked, coupled lactate dehydrogenase/pyruvate kinase). Format: biochemical. As to conditions: ACC2 assay, hACC2 construct lacking 128 N-terminal amino acids, 25° C., 340 nm; read-out: IC50. The method in brief:
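Human ACC2 lacking N-terminal 128 aa, baculovirus/insect-cell expressed, anion-exchange purified; 100 mM Tris pH 7.5, 10 mM citrate, 25 mM KHCO3, 1% DMSO. Started with 200 μM NADH and acetyl-CoA plus 500 μM ATP; PK/LDH-coupled A340 decrease read 15 min at 25° C. IC50 by nonlinear fit of low-control-subtracted slopes.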
For `CC(=O)N[C@@H](C)c1ccc(C2CCN(c3ccc(C(C)C)cn3)CC2)cc1` [Example 4.13], the IC50 amounted to 3200 nM.

For the molecule `CC(C)Oc1cccc(N2CCC(c3ccc([C@H](C)NC(=O)N(C)C)cc3)CC2)c1` [Example 1.81], the IC50 amounted to 280 nM.

`CCOc1ccc(N2CCC(c3ccc([C@H](C)NC(=O)N(C)CC)cc3)CC2)cc1` [Example 14.51]: the half-inhibitory concentration (IC50) came out at 610 nM.

With `CCCOc1ccc(N2CCC(c3ccc([C@H](C)NC(C)=O)cc3)CC2)cc1C` [Example 8.31], the IC50 came to 1200 nM.

Regarding `CC(=O)N[C@@H](C)c1ccc(C2CCN(c3ccc(-c4cccs4)nc3)CC2)cc1` [Example 15.11], the IC50 worked out at 160 nM.

Take `CC(=O)N[C@@H](C)c1ccc(C2CCN(c3ccnc(OC4CCCCC4)c3)CC2)cc1` [Example 19.6]: the IC50 amounted to 80 nM.

As for `CC(=O)N[C@@H](C)c1ccc(C2CCN(c3cnc(-c4ccccn4)s3)CC2)cc1` [Example 34.1, (S)—N-(1-(4-(1-(2-(Pyridin-2-yl)thiazol-5-yl)piperidin-4-yl)phenyl)ethyl)acetamide], the IC50 is 420 nM.

With `CC(=O)N[C@@H](C)c1ccc(C2CCN(c3ccnc(OC4CC=CC4)c3)CC2)cc1` [Example 19.25], the IC50 turned out to be 70 nM.

As for `C[C@H](NC(=O)C1CC1)c1ccc(C2CCN(c3ncc(C4CC4)cn3)CC2)cc1` [Example 4.303], the IC50 came out at 15600 nM.

Take `CCOc1ccc(N2CCC(c3ccc([C@H](C)NC(C)=O)cc3)CC2)nn1` [Example 3.11]: the IC50 stood at 3000 nM.

As for `CC(=O)N[C@@H](C)c1ccc(C2CCN(c3ccnc(NCc4ccoc4)n3)CC2)cc1` [Example 11.100], the IC50 was 5200 nM.

For the molecule `CC(=O)N[C@@H](C)c1ccc(C2CCN(c3ncc(-c4ccccc4)c(Cl)n3)CC2)cc1` [Example 5.50, (S)—N-(1-{4-[1-(4-chloro-5-phenyl-pyrimidin-2-yl)-piperidin-4-yl]-phenyl}-ethyl)-acetamide], the IC50 is 90 nM.

Turning to `CCOc1ccc(N2CCC(c3ccc([C@H](C)NC(=O)N4CCOCC4)cc3)CC2)cc1` [Example 14.63], the IC50 came out at 1600 nM.

As to `Cc1cc(OC2CC2)ccc1N1CCC(c2ccc([C@H](C)NC(=O)N(C)C)cc2)CC1` [Example 1.57], the half-maximal inhibitory concentration (IC50) worked out at 100 nM.

As to `CC(=O)N[C@@H](C)c1ccc(C2CCN(c3ncc(-c4cccnc4)cn3)CC2)cc1` [Example 10.12], the IC50 turned out to be 360 nM.

Consider `COCc1nc(N2CCC(c3ccc([C@H](C)NC(C)=O)cc3)CC2)no1` [Example 26.4], for which the IC50 was 9100 nM.

Regarding `CCCC(C)Oc1ccc(N2CCC(c3ccc([C@H](C)NC(C)=O)cc3)CC2)cc1C` (some centres unmarked) [Example 8.56], the IC50 amounted to 1000 nM.

Take `COc1ccccc1CNC(=O)c1cnc(N2CCC(c3ccc([C@H](C)NC(C)=O)cc3)CC2)nc1` [Example 18.14]: the IC50 is 10200 nM.

As to `CC(C)COc1ccc(N2CCC(c3ccc([C@H](C)NC(=O)N(C)C)cc3)CC2)cc1` [Example 1.122], the IC50 turned out to be 120 nM.

With `CC(=O)N[C@@H](C)c1ccc(C2CCN(c3ccc(OCC(C)C)cn3)CC2)cc1` [Example 5.4], the IC50 came to 90 nM.

As for `CC(=O)N[C@@H](C)c1ccc(C2CCN(c3ccc(OCC4CC4)c(C)c3)CC2)cc1` [Example 9.38], the IC50 was 410 nM.

Consider `C[C@H](NC(=O)C1CC1)c1ccc(C2CCN(c3ncc4nc(-c5ccsc5)oc4n3)CC2)cc1` [Example 4.301], for which the half-maximal inhibitory concentration (IC50) was 390 nM.

On to `CC(=O)N[C@@H](C)c1ccc(C2CCN(c3ncc(-c4cc5cc(C#N)ccc5[nH]4)cn3)CC2)cc1` [Example 10.117], for which the IC50 is 680 nM.

Consider `CCOc1ccc(N2CCC(c3ccc([C@H](C)NC(=O)C4CC(OC)C4)cc3)CC2)cc1` (some centres unmarked) [Example 6.37], for which the half-inhibitory concentration (IC50) was 760 nM.

With `CC(=O)N[C@@H](C)c1ccc(C2CCN(c3ncc(-c4cc(C)ccn4)cn3)CC2)cc1` [Example 10.122], the IC50 was determined as 150 nM.

Regarding `CCC(C)Oc1ccc(N2CCC(c3ccc([C@H](C)NC(C)=O)cc3)CC2)cc1` (some centres unmarked) [Example 1.29], the IC50 came out at 80 nM.

Consider `CCOc1ccc(N2CCC(c3ccc([C@H](C)NC(=O)c4ncn[nH]4)cc3)CC2)cc1` [Example 6.41], for which the IC50 was 4100 nM.

Turning to `CCCCOc1ccc(N2CCC(c3ccc([C@H](C)NC(C)=O)cc3)CC2)cc1C` [Example 8.40], the IC50 was determined as 1400 nM.

Regarding `COC1CN(c2cc(N3CCC(c4ccc([C@H](C)NC(C)=O)cc4)CC3)ncn2)C1` [Example 11.79], the IC50 was 4000 nM.

As for `CC(=O)N[C@@H](C)c1ccc(C2CCN(c3ncc(-c4cccs4)cn3)CC2)cc1` [Example 10.130], the IC50 stood at 40 nM.

With `CCc1noc(N2CCC(c3ccc([C@H](C)NC(C)=O)cc3)CC2)n1` [Example 25.2], the IC50 worked out at 10300 nM.

With `COc1ccc(COc2cc(N3CCC(c4ccc([C@H](C)NC(C)=O)cc4)CC3)ccn2)cc1` [Example 19.35], the IC50 worked out at 27400 nM.

Regarding `CC(=O)N[C@@H](C)c1ccc(C2CCN(c3ccnc(OCCC4CC4)n3)CC2)cc1` [Example 11.4], the IC50 stood at 450 nM.

As for `CSc1ccc(-c2cnc(N3CCC(c4ccc([C@H](C)NC(C)=O)cc4)CC3)nc2)c(C(F)(F)F)c1` [Example 10.77], the IC50 worked out at 1600 nM.

Regarding `COc1cc(N2CCC(c3ccc([C@H](C)NC(C)=O)cc3)CC2)ccc1OCC(C)C` [Example 8.29], the IC50 turned out to be 890 nM.

For `C[C@H](NC(=O)C1CC1)c1ccc(C2CCN(c3ncc(-c4ccccc4F)cn3)CC2)cc1` [Example 10.103], the IC50 worked out at 560 nM.

Regarding `CCOc1ccc(N2CCC(c3ccc([C@H](C)NC(=O)CC)cc3)CC2)cc1` [Example 6.8], the IC50 was 190 nM.

As for `CC(=O)N[C@@H](C)c1ccc(C2CCN(c3ccnc(-c4ccc(C#N)s4)n3)CC2)cc1` [Example 22.5], the half-maximal inhibitory concentration (IC50) amounted to 940 nM.

Turning to `COc1cc(N2CCC(c3ccc([C@H](C)NC(C)=O)cc3)CC2)ccc1OCC1CCC1` [Example 9.43], the half-maximal inhibitory concentration (IC50) turned out to be 430 nM.

Regarding `CC(=O)N[C@@H](C)c1ccc(C2CCN(c3ncc(I)cn3)CC2)cc1` [Example 4.43, (S)—N-(1-{4-[1-(5-iodopyrimidin-2-yl)-piperidin-4-yl]-phenyl}-ethyl)-acetamide], the IC50 was 410 nM.

As for `CCOc1ccc(N2CCC(c3ccc([C@H](C)NC(=O)C4CC4)cc3)CC2)nc1` [Example 5.58], the IC50 was found to be 860 nM.

Take `CC(=O)N[C@@H](C)c1ccc(C2CCN(c3ccnc(N4CCC5(CC5)C4)n3)CC2)cc1` [Example 11.93]: the half-inhibitory concentration (IC50) was 550 nM.

`C[C@H](NC(=O)C1CC1)c1ccc(C2CCN(c3ccc(OC4CCC4)cc3)CC2)cc1` [Example 1.9]: the IC50 came to 50 nM.

For `CCNc1ccc(N2CCC(c3ccc([C@H](C)NC(C)=O)cc3)CC2)cc1` [Example 24.2], the concentration for half-maximal inhibition (IC50) is 1900 nM.

As for `CC(=O)N[C@@H](C)c1ccc(C2CCN(c3ncc(C(=O)Nc4ccccc4C)cn3)CC2)cc1` [Example 18.7], the concentration for half-maximal inhibition (IC50) amounted to 3600 nM.

For the molecule `CCCOc1ccc(N2CCC(c3ccc([C@H](C)NC(C)=O)cc3)CC2)cc1Cl` [Example 8.34], the IC50 was 260 nM.

For `CCC(=O)N[C@@H](C)c1ccc(C2CCN(c3ncc(C4CC4)cn3)CC2)cc1` [Example 4.54], the half-maximal inhibitory concentration (IC50) was found to be 1800 nM.

As to `C=CCCOc1ccc(N2CCC(c3ccc([C@H](C)NC(C)=O)cc3)CC2)cc1` [Example 9.27], the IC50 worked out at 70 nM.

On to `CC(=O)N[C@@H](C)c1ccc(C2CCN(c3ccnc(Nc4cncnc4)n3)CC2)cc1` [Example 11.117], for which the IC50 turned out to be 4300 nM.

Regarding `COc1cc(C)c(-c2cnc(N3CCC(c4ccc([C@H](C)NC(C)=O)cc4)CC3)nc2)c(C)c1` [Example 10.204], the IC50 came out at 350 nM.

On to `CCCOc1ccc(N2CCC(c3ccc(CC(C)NC(C)=O)cc3)CC2)cc1` (centres unmarked) [Example 2.3], for which the IC50 amounted to 990 nM.

Turning to `CC(=O)N[C@@H](C)c1ccc(C2CCN(c3ncc(-c4ccccc4C#N)cn3)CC2)cc1` [Example 10.55], the IC50 came to 640 nM.

For the molecule `CCCOc1ccc(N2CCC(c3ccc([C@H](C)NC(=O)N(C)C)cc3)CC2)c(C#N)c1` [Example 1.123], the IC50 was 70 nM.

Consider `CCOc1ccc(N2CCC(c3ccc([C@H](C)NC(=O)c4cc[nH]n4)cc3)CC2)cc1` [Example 6.29], for which the IC50 was found to be 3600 nM.

Consider `CCOc1ccc(N2CCC(c3ccc([C@H](C)NS(C)(=O)=O)cc3)CC2)cc1` [Example 17.1, (S)—N-(1-{4-[1-(4-Ethoxy-phenyl)-piperidin-4-yl]-phenyl}-ethyl)-methanesulfonamide], for which the IC50 was found to be 2900 nM.

With `CCCCOc1ccc(N2CCC(c3ccc([C@H](C)NC(C)=O)cc3)CC2)c(C#N)c1` [Example 4.201], the IC50 came out at 60 nM.

Take `CC(=O)N[C@@H](C)c1ccc(C2CCN(c3ccnc(NCCC(C)C)n3)CC2)cc1` [Example 11.71]: the IC50 was 2300 nM.

With `CC(=O)N[C@@H](C)c1ccc(C2CCN(c3ncc(-c4ccc(C#N)s4)cn3)CC2)cc1` [Example 10.63], the IC50 was 30 nM.

In the case of `CC(=O)N[C@@H](C)c1ccc(C2CCN(c3ncc(-c4ccc(C(C)C)cc4)cn3)CC2)cc1` [Example 10.11], the half-inhibitory concentration (IC50) was found to be 5800 nM.

In the case of `CC(=O)N[C@@H](C)c1ccc(C2CCN(c3ncc(-c4coc5ccccc45)cn3)CC2)cc1` [Example 10.91], the IC50 turned out to be 170 nM.

As to `CC(=O)N[C@@H](C)c1ccc(C2CCN(c3ncc(-c4ccc5sccc5c4)cn3)CC2)cc1` [Example 10.75], the IC50 amounted to 50 nM.

Consider `CC(=O)N[C@@H](C)c1ccc(C2CCN(c3ncc(C(=O)Nc4cccc5c4OCO5)cn3)CC2)cc1` [Example 18.33], for which the IC50 stood at 1500 nM.

Take `CCCn1ccc(N2CCC(c3ccc([C@H](C)NC(C)=O)cc3)CC2)cc1=O` [Example 3.9]: the IC50 is 13300 nM.

With `CC(=O)N[C@@H](C)c1ccc(C2CCN(c3cc(OCCc4ccccc4)ncn3)CC2)cc1` [Example 11.14], the half-maximal inhibitory concentration (IC50) was 3500 nM.

Regarding `CC(=O)N[C@@H](C)c1ccc(C2CCN(c3ccnc(OCc4cccnc4)c3)CC2)cc1` [Example 19.34], the concentration for half-maximal inhibition (IC50) worked out at 520 nM.
